Measured values: ChEMBL document CHEMBL1201862, “PubChem BioAssay data set” (2004)
Activity calls are given as the source filed them.

What was measured:
HT-1080 = experiment: HT1080 cell viability loss – fluorescence readout (AID 620); format: functional, cell-based; conditions: Homo sapiens
[1] = target: Luciferin 4-monooxygenase (Photinus pyralis, UniProt P08659); experiment: Counter Screen for Luciferase-based Assay Positives. [Related pubchem assays: 620, 618, 411 ]
Streptococcus [2] = experiment: Luminescence Microorganism-Based Dose Response Follow up to Identify Compounds Cytotoxic to Streptococcus. [Related pubchem assays: 1677 (Project Summary), 1915, 1914, 1902 (Retest at Dose), 1900 (Counter Screen), 1662 (Primary HTS)]; format: functional, organism-based
Streptokinase A = target: T1, Streptokinase A (Streptococcus pyogenes serotype M1, UniProt P10520); experiment: viability-normalized secreted streptokinase activity reduction – plasminogen activation absorbance, OD405, dose response (AID 1914); format: functional, Streptococcus pyogenes M1 GAS;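 further: secreted streptokinase activity via plasminogen activation per viability signal from cell pellet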
T1 sequence (P10520 whole entry): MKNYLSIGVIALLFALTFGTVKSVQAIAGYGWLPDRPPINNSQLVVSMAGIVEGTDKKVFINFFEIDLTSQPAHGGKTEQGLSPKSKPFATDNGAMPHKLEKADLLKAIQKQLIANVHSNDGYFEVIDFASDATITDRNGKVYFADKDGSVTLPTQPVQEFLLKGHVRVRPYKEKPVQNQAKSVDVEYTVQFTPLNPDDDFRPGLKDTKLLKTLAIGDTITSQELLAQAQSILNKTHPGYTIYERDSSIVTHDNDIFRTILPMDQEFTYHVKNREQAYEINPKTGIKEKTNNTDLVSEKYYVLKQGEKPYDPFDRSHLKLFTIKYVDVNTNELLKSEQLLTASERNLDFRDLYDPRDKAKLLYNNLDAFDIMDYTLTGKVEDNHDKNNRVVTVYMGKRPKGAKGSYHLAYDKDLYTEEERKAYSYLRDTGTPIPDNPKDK

Streptococcus [3] = experiment: GAS UMAA2166 growth inhibition – luminescence, BacTiterGlo, counter-screen for streptokinase expression inhibitor project, dose response (AID 1915); format: functional, organism-based;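 further: potency for reduction of bacterial viability or growth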
[4] = tested on: Streptococcus sp. 'group A'; experiment: Streptococcus pyogenes SK(-)GAS viability under kanamycin – luminescence, BacTiterGlo, confirmation, counter-screen for streptokinase expression inhibitor project, dose response (AID 1900); format: functional, organism-based
Hexokinase HKDC1 = target: T2, Hexokinase HKDC1 (Homo sapiens, UniProt Q2TB90); experiment: inhibition of HKDC1 glucose phosphorylation – biochemical, W721R variant, dose response (AID 504729); format: functional
T2 sequence (Q2TB90 whole entry): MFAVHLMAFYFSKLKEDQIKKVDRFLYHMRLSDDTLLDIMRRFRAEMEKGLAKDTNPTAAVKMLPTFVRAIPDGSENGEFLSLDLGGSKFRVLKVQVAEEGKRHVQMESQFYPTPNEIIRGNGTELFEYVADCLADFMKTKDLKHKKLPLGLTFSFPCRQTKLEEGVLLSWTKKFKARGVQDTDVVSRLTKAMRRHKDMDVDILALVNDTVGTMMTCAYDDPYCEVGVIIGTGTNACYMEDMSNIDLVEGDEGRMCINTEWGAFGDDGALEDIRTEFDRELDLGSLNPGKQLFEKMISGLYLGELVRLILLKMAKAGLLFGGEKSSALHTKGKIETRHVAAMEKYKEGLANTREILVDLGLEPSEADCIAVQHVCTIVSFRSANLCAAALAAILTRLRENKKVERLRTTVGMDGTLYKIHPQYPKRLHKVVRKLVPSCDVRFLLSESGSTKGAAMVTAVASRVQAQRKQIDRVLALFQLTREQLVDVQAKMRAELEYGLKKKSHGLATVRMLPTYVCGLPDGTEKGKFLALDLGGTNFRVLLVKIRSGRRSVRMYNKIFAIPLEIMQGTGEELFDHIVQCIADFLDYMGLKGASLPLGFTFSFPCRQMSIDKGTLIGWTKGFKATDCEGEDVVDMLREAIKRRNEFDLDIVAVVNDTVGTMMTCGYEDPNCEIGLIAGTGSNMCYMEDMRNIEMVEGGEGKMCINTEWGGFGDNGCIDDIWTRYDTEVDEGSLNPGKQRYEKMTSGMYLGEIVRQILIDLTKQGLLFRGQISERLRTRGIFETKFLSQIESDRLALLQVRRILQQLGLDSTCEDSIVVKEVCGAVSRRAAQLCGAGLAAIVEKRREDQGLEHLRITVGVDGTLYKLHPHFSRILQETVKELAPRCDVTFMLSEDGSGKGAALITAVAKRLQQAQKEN

Vasopressin V1a receptor = Vasopressin V1a receptor (Homo sapiens, UniProt P37288); experiment: Counterscreen for Oxytocin Receptor (OXTR) agonists: Fluorescence-based cell-based high throughput dose response assay to identify agonists of the vasopressin 1 receptor (V1R). [Related pubchem assays: 2435 (Primary screen (OXTR agonists in singlicate)), 434991 (Counterscreen (V1R agonists in triplicate)), 2482 (Summary (OXTR agonists)) …; format: functional
Sequence of Vasopressin V1a receptor (P37288 whole entry): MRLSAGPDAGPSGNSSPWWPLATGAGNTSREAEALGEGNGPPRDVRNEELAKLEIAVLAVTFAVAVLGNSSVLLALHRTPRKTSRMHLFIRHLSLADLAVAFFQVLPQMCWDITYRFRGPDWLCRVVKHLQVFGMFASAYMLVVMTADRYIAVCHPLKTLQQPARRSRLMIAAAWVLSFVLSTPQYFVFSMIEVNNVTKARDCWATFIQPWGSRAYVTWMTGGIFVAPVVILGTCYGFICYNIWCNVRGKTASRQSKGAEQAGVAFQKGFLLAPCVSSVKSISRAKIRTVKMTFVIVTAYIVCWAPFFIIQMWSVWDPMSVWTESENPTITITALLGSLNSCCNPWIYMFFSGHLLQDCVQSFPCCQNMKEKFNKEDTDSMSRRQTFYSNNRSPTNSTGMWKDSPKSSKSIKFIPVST

[5] = general mammalian cell viability loss – activator set, cherry-pick, cytotoxicity control for miR-122 modulator project, dose response (AID 720690); format: functional, cell-based;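 further: HEK293T human cells scored for general mammalian cytotoxicity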
[6] = target: T3, Microphthalmia-associated transcription factor (Homo sapiens, UniProt O75030); experiment: reducers of TRPM1 reporter luminescence, concentration series – cell-based, SK-MEL-5, cherry-picked, set 3, MITF inhibitor project, dose response (AID 493073); format: functional;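 further: SK-MEL-5 melanoma cells with luciferase driven by the MITF target TRPM1 promoter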
T3 sequence (O75030 whole entry): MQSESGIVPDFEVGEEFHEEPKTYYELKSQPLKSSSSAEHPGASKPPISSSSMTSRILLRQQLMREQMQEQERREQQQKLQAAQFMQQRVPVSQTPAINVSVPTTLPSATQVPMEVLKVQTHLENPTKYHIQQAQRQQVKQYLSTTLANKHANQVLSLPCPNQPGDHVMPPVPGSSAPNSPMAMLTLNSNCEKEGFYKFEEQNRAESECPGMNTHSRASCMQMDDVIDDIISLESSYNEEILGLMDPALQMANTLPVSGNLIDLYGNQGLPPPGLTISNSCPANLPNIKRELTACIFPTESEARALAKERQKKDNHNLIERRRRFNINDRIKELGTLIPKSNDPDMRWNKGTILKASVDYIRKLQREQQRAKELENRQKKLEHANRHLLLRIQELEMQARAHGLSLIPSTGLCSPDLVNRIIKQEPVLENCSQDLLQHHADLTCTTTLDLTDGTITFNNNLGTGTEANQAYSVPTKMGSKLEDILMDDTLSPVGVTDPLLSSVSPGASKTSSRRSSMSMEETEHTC

[7] = activation of miR-122 Renilla sensor silencing – cell-based, Huh7 psiCHECK-miR122, Renilla luciferase, cherry-picked, dose response (AID 651956); format: functional;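 further: huh7 hepatoma cells stably carrying a psiCHECK-2 miR-122 sensor plasmid; renilla luciferase signal reporting endogenous miR-122 activity after 48 h compound exposure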
Oxytocin receptor = Oxytocin receptor (Homo sapiens, UniProt P30559); experiment: Fluorescence-based cell-based high throughput dose response assay for agonists of the Oxytocin Receptor (OXTR). [Related pubchem assays: 2435 (Primary screen (OXTR agonists in singlicate)), 434991 (Counterscreen (V1R agonists in triplicate)), 2482 (Summary (OXTR agonists)), 434963 (Confirmation screen (OXTR agonists in triplicate))]; format: functional
Sequence of Oxytocin receptor (P30559 whole entry): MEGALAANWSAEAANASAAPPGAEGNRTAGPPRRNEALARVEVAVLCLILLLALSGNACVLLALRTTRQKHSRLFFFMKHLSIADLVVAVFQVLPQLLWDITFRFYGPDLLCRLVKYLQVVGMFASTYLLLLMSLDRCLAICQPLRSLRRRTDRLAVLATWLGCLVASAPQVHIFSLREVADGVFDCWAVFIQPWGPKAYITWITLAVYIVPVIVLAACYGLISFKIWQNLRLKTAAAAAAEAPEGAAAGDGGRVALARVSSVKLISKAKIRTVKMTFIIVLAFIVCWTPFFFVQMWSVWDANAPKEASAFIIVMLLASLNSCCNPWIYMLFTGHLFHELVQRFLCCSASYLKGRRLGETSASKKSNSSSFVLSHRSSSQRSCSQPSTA

A-375 = experiment: MITF: Counter assay: A375 proliferation Measured in Cell-Based System Using Plate Reader - 2084-03_Inhibitor_Dose_DryPowder_Activity. [Related pubchem assays (depositor defined):AID488944]; format: functional; conditions: Homo sapiens
[8] = target: T4, Tyrosine-protein phosphatase non-receptor type 7 (Homo sapiens, UniProt P35236); experiment: SAR analysis of chemical inhibitors of HePTP using a Fluorescent assay - Set 2. [Related pubchem assays (depositor defined):AID1059, AID1077, AID1661, AID2085, AID521]; format: functional
T4 sequence (P35236 whole entry): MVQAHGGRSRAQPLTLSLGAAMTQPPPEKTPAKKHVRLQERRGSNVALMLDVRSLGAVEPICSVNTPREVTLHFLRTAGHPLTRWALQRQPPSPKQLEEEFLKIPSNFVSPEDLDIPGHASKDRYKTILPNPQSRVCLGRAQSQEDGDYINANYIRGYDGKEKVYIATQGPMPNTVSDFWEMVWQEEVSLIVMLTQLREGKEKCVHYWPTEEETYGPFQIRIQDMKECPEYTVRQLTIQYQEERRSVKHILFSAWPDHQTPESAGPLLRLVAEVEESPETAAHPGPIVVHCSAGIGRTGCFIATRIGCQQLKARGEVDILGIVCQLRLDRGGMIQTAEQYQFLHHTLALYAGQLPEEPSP

[9] = target: Dual specificity protein phosphatase 3 (Homo sapiens, UniProt P51452); experiment: SAR VHR1 Fluorescent Assay for In Vitro dose response studies Set 2. [Related pubchem assays (depositor defined):AID1654, AID1661, AID1878]; format: functional
Sequence of Dual specificity protein phosphatase 3 (P51452 whole entry): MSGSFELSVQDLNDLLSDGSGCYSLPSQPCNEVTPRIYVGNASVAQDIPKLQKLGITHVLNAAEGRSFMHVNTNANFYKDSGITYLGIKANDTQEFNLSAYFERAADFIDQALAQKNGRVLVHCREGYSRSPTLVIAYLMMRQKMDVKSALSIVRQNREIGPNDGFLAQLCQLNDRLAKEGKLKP

[10] = alpha-synuclein stem-loop luciferase translation blockers – H4 neuroglioma cells, luminescence, confirmation (AID 1988); format: functional, cell-based
[11] = HEK-293T cell viability reduction – luminescence, B-cell screen hits, cytotoxicity control for BCR NF-kB inhibitor project, dose response (AID 489021); format: functional, cell-based;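 further: HEK-293T cells carrying an NF-kB luciferase reporter; cells exposed to compound for about 14 hours before viability readout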
[12] = Luminescence Cell-Based Dose Response HTS to Identify Inhibitors of 5'UTR Stem-Loop Driven Prion Protein mRNA Translation in H4 Neuroglioblastoma Cells. [Related pubchem assays: 1827 (Project Summary), 1813 (Primary HTS)]; format: functional
[13] = luciferase reporter signal suppression in cells – H4 neuroglioma cells, luminescence, dose response (AID 1990); format: functional, cell-based
Cytochrome P450 3A4 = Cytochrome P450 3A4 (Homo sapiens, UniProt P08684); conditions: Potency;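 further: confirmatory qHTS run detecting inhibitors and substrates of CYP3A4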
Sequence of Cytochrome P450 3A4 (P08684 whole entry): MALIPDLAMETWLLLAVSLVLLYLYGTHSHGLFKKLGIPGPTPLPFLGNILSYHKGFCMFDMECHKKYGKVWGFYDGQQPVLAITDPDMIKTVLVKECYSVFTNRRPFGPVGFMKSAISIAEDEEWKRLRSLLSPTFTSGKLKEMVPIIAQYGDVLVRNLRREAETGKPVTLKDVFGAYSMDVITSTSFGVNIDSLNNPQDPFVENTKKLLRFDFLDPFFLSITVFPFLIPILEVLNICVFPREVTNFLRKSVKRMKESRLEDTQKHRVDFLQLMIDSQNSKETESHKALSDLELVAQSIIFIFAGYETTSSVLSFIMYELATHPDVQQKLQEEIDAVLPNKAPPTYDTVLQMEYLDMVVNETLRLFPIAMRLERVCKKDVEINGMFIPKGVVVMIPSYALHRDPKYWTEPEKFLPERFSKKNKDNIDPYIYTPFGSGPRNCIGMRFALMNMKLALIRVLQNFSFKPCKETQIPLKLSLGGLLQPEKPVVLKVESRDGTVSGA

Sequence of Luciferin 4-monooxygenase (P08659 whole entry): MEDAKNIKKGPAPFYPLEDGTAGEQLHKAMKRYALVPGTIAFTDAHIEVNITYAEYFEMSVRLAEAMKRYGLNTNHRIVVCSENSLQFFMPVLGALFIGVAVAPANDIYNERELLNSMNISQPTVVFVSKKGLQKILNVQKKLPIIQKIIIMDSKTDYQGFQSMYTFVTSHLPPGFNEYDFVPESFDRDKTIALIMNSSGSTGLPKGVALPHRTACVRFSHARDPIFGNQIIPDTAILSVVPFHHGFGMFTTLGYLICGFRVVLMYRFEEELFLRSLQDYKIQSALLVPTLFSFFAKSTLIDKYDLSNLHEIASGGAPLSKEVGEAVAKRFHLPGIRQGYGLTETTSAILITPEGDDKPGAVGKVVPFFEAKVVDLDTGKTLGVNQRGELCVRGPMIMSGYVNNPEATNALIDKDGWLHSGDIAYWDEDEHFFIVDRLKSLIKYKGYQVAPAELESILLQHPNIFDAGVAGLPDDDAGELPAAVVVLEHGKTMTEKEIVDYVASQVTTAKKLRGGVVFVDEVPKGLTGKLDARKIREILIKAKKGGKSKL

COc1ccc(-n2ncc3c(NCC(C)C)ncnc32)cc1
EC50 (HT-1080): > 50 µM (not active) | EC50 [1]: 1.17 µM (active)

CCN(CC)C(=S)SCC(=O)Nc1nc(-c2ccccc2)c(-c2ccccc2)o1
EC50 (Streptococcus [2]): > 500 µM (not active) | EC50 (Streptokinase A): 8.54 µM (active) | EC50 (Streptococcus [3]): > 150 µM (not active) | EC50 [4]: 7.26 µM (active)

COc1ccc(NC(=O)CSc2ccc(-c3cccnc3)nn2)c(OC)c1
IC50 (Hexokinase HKDC1): 17.8 µM (active)

N=c1n(CC(=O)c2ccc(Br)s2)c2ccccc2n1Cc1ccccc1
EC50 (Vasopressin V1a receptor): 15.1 µM (not active) | AC50 [5]: 11.4 µM (active) | AC50 [6]: 7.34 µM (active) | AC50 [7]: 10.9 µM (active) | EC50 (Oxytocin receptor): 14.8 µM (not active) | AC50 (A-375): 19.7 µM (active)

COc1cc(C(=S)NCc2cccc(C(F)(F)F)c2)ccc1O
IC50 [8]: 55 µM (active) | IC50 [9]: 47 µM (active)

O=c1ccc2nccc3c4c(O)cccc4n1c23
EC50 [10]: 11.9 µM (active) | IC50 [11]: > 80 µM (inactive) | EC50 [12]: 9.94 µM (active) | EC50 [13]: 12.7 µM (active)

CC(C)=CCOc1cc2oc(=O)ccc2cc1O [PRENYLETIN]
AC50 (Cytochrome P450 3A4): 39.8 µM (inconclusive)
